# Source: patent US7718128B2, “Application using non-covalent bond between a cucurbituril derivative and a ligand” (Postech Foundation, priority 2005, dated 2010)
# System: KB cells (oral carcinoma cells)
# Assay: measurement of degree of cell death by flow cytometry (annexin V-ferrocene derivative / FITC-cucurbituril derivative)
# Type: cell-based
# Conditions: 0.5 μM (0.3 μg/mL) doxorubicin, 3 days, versus sample not treated
# Description: After a ferrocene derivative bound to annexin V, which is known as a protein that can selectively bind to surfaces of dead cells, was treated on cells induced to die using an anti-cancer drug, the cells were treated with an FITC-bound cucurbituril derivative, and the degree of cell death was measured through flow cytometry.
# 2 mL of […] culture solution (containing 10% FCS) and about 10^6 KB cells (oral carcinoma cells) (obtained from the Korean Cell Line Bank (KCLB)) were cultured in two 6-well cell culture dishes at 37° C. in a 5% CO2 condition for 48 hours.
# Next, 2 mL of the RPMT-1640 culture solution (containing 10% FCS) in one of the 6-well cell culture dishes was replaced by the same, fresh culture solution, and 2 mL of the RPMT-1640 culture solution in the other 6-well cell culture dish was replaced by 0.5 μM (0.3 μg/mL) of doxorubicin, and the two culture dishes were incubated at 37° C. in a 5% CO2 condition for 3 days.
# The culture solution in the two cell culture dishes incubated in (1) was removed. […]
# Next, the degree of cell depth in each of the samples was measured through flow cytometry (FACSCalibur, Becton Dickinson Corp., Ex=488 nm, Em=530 nm (for FITC detection).
structure (smiles),measurement,value
COc1cccc2c1C(=O)c1c(O)c3c(c(O)c1C2=O)C[C@@](O)(C(=O)CO)C[C@@H]3O[C@H]1C[C@H](N)[C@H](O)[C@H](C)O1 [doxorubicin],"degree of cell death (FITC signal, flow cytometry)",most cells in the doxorubicin-treated sample died
